Counter-ions that a name gives are not always drawn.
Molecular target: T1, human TRPC6 (Homo sapiens, UniProt Q9Y210)
T1 construct: expressed in transfected cells
T1 sequence (Q9Y210 1-931): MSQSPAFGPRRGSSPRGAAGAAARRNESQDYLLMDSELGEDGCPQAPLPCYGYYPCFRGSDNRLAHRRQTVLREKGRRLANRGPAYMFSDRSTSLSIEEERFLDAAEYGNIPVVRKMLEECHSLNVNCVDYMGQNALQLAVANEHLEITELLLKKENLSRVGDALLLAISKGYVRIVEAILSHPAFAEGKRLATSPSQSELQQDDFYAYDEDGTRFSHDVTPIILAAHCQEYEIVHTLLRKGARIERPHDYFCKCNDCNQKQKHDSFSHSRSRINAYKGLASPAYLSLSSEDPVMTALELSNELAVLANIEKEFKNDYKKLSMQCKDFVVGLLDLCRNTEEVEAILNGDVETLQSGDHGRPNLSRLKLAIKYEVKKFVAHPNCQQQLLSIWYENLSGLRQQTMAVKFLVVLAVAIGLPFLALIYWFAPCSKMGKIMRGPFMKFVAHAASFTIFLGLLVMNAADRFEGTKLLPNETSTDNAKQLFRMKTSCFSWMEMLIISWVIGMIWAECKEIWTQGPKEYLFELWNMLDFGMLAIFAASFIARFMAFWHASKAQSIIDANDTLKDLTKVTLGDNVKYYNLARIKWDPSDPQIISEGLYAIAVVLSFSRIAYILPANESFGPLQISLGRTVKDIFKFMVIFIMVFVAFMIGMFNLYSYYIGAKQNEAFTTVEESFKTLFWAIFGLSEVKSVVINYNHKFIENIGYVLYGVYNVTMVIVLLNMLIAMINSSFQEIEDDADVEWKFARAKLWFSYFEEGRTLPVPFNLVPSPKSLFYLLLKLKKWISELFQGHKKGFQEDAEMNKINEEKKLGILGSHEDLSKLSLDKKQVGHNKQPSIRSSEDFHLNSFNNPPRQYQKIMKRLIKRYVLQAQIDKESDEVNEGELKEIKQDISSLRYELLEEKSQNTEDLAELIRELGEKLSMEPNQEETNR
Assay: TRPC6 calcium flux assay (FLIPR, OAG-stimulated calcium influx)
Format: cell-based
Conditions: HEK293 cells stably transfected with human TRPC6, read-out: hTRPC6 Potency
Summary of the method: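 IC50 derived by plotting background-corrected peak fluorescence (180 s window, normalized to OAG-triggered signal vs buffer) against dose. Stable human TRPC6 HEK293 line was dye-loaded, exposed to compound 25 min, then challenged with 50 uM final OAG in 2 mM Ca2+ HEPES buffer pH 7.2, 0.5% DMSO.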

IC50 [nM] | SMILES
0.469 | N#Cc1ccc(Cn2c(N3CC[C@@H](F)[C@H](N)C3)nc3c(Cl)cc(Cl)cc32)nc1 [Example 58, 6-((2-((3R,4R)-3-amino-4-fluoropiperidin-1-yl)-4,6-dichloro-1H-benzo[d]imidazol-1-yl)methyl)nicotinonitrile]
0.256 | N#Cc1ccc(Cn2c(N3CC[C@H](F)[C@H](N)C3)nc3c(Cl)cc(Cl)cc32)nc1 [Example 59, 6-((2-((3R,4S)-3-amino-4-fluoropiperidin-1-yl)-4,6-dichloro-1H-benzo[d]imidazol-1-yl)methyl)nicotinonitrile]
0.261 | N#Cc1ccc(Cn2c(N3CCC(F)(F)[C@H](N)C3)nc3c(Cl)cc(Cl)cc32)nc1 [Example 60, (R)-6-((2-(3-amino-4,4-difluoropiperidin-1-yl)-4,6-dichloro-1H-benzo[d]imidazol-1-yl)methyl)nicotinonitrile]
2.7 | N#Cc1ccc(Cn2c(N3CCC[C@H](N)C3)nc3c(F)cc(F)cc32)nc1 [Example 61, (S)-6-((2-(3-aminopiperidin-1-yl)-4,6-difluoro-1H-benzo[d]imidazol-1-yl)methyl)nicotinonitrile]
60.3 | N#Cc1ccc(Cn2c(N3CCC[C@H](N)C3)nc3cc(F)cc(F)c32)nc1 [Example 62, (S)-6-((2-(3-aminopiperidin-yl)-5,7-difluoro-1H-benzo[d]imidazol-1-yl)methyl)nicotinonitrile]
0.389 | N#Cc1ccc(Cn2c(N3CC[C@@H](F)[C@H](N)C3)nc3c(F)cc(F)cc32)nc1 [Example 63, 6-((2-((3R,4R)-3-amino-4-fluoropiperidin-1-yl)-4,6-difluoro-1H-benzo[d]imidazol-1-yl)methyl)nicotinonitrile]
132 | N#Cc1ccc(Cn2c(N3CC[C@@H](F)[C@H](N)C3)nc3cc(F)cc(F)c32)nc1 [Example 64, 6-((2-((3R,4R)-3-amino-4-fluoropiperidin-1-yl)-5,7-difluoro-1H-benzo[d]imidazol-1-yl)methyl)nicotinonitrile]
0.598 | N#Cc1ccc(Cn2c(N3CC[C@H](F)[C@H](N)C3)nc3c(F)cc(F)cc32)nc1 [Example 65, 6-((2-((3R,4S)-3-amino-4-fluoropiperidin-1-yl)-4,6-difluoro-1H-benzo[d]imidazol-1-yl)methyl)nicotinonitrile]
237 | N#Cc1ccc(Cn2c(N3CC[C@H](F)[C@H](N)C3)nc3cc(F)cc(F)c32)nc1 [Example 66, 6-((2-((3R,4S)-3-amino-4-fluoropiperidin-1-yl)-5,7-difluoro-1H-benzo[d]imidazol-1-yl)methyl)nicotinonitrile]
272 | N#Cc1ccc(Cn2c(N3CCC(F)(F)[C@H](N)C3)nc3cc(F)cc(F)c32)nc1 [Example 67, (R)-6-((2-(3-amino-4,4-difluoropiperidin-1-yl)-5,7-difluoro-1H-benzo[d]imidazol-1-yl)methyl)nicotinonitrile]
1.82 | N#Cc1ccc(Cn2c(N3CC[C@H](F)[C@H](N)C3)nc3ccc(C#N)cc32)nc1 [Example 68, 2-((3R,4S)-3-amino-4-fluoropiperidin-1-yl)-1-((5-cyanopyridin-2-yl)methyl)-1H-benzo[d]imidazole-6-carbonitrile]
14.7 | N#Cc1ccc(Cn2c(N3CC[C@H](F)[C@H](N)C3)nc3cc(C#N)ccc32)nc1 [Example 69, 2-((3R,4S)-3-amino-4-fluoropiperidin-1-yl)-1-((5-cyanopyridin-2-yl)methyl)-1H-benzo[d]imidazole-5-carbonitrile]
2.32 | N#Cc1ccc(Cn2c(N3CCC[C@H](N)C3)nc3ccccc32)nc1 [Example 70, (S)-6-((2-(3-aminopiperidin-1-yl)-1H-benzo[d]imidazol-1-yl)methyl)nicotinonitrile]
5.62 | N#Cc1ccc(Cn2c(N3CCC(F)(F)[C@H](N)C3)nc3cc(F)ccc32)nc1 [Example 71, (R)-6-((2-(3-amino-4,4-difluoropiperidin-1-yl)-5-fluoro-1H-benzo[d]imidazol-1-yl)methyl)nicotinonitrile hydrochloride]
0.448 | N#Cc1ccc(Cn2c(N3CC[C@@H](F)[C@H](N)C3)nc3cc(F)c(F)cc32)nc1 [Example 72, 6-((2-((3R,4R)-3-amino-4-fluoropiperidin-1-yl)-5,6-difluoro-1H-benzo[d]imidazol-1-yl)methyl)nicotinonitrile]
1.09 | N#Cc1ccc(Cn2c(N3CC[C@H](F)[C@H](N)C3)nc3ccccc32)nc1 [Example 73, 6-((2-((3R,4S)-3-amino-4-fluoropiperidin-1-yl)-1H-benzo[d]imidazol-1-yl)methyl)nicotinonitrile]
380 | N#Cc1ccc(Cn2c(N3C[C@H]4C[C@@]4(CN)C3)nc3ccccc32)nc1 [Example 74, 6-((2-((1R,5S)-1-(aminomethyl)-3-azabicyclo[3.1.0]hexan-3-yl)-1H-benzo[d]imidazol-1-yl)methyl)nicotinonitrile hydrochloride]
81.4 | N#Cc1ccc(Cn2c(N3C[C@@H]4C[C@]4(CN)C3)nc3ccccc32)nc1 [Example 75, 6-((2-((1S,5R)-1-(aminomethyl)-3-azabicyclo[3.1.0]hexan-3-yl)-1H-benzo[d]imidazol-1-yl)methyl)nicotinonitrile hydrochloride]
971 | N#Cc1ccc(Cn2c(N3C[C@H]4CC[C@@H](N)[C@H]4C3)nc3ccccc32)nc1 [Example 76, 6-((2-((3aR,4R,6aS)-4-aminohexahydrocyclopenta[c]pyrrol-2(1H)-yl)-1H-benzo[d]imidazol-1-yl)methyl)nicotinonitrile hydrochloride]
10.9 | N#Cc1ccc(Cn2c(N3C[C@@H]4CC[C@H](N)[C@@H]4C3)nc3ccccc32)nc1 [Example 77, 6-((2-((3aS,4S,6aR)-4-aminohexahydrocyclopenta[c]pyrrol-2(1H)-yl)-1H-benzo[d]imidazol-1-yl)methyl)nicotinonitrile hydrochloride]
70.7 | N#Cc1ccc(Cn2c(N3C[C@H]4CC[C@H](N)[C@H]4C3)nc3ccccc32)nc1 [Example 78, 6-((2-((3aR,4S,6aS)-4-aminohexahydrocyclopenta[c]pyrrol-2(1H)-yl)-1H-benzo[d]imidazol-1-yl)methyl)nicotinonitrile hydrochloride]
5.09 | N#Cc1ccc(Cn2c(N3C[C@@H]4CC[C@@H](N)[C@@H]4C3)nc3ccccc32)nc1 [Example 79, 6-((2-((3aS,4R,6aR)-4-aminohexahydrocyclopenta[c]pyrrol-2(1H)-yl)-1H-benzo[d]imidazol-1-yl)methyl)nicotinonitrile hydrochloride]
79.3 | N#Cc1ccc(Cn2c(N3CC[C@H](CN)C3)nc3ccccc32)nc1 [Example 80, (R)-6-((2-(3-(aminomethyl)pyrrolidin-1-yl)-1H-benzo[d]imidazol-1-yl)methyl)nicotinonitrile hydrochloride]
557 | N#Cc1ccc(Cn2c(N3CC[C@@H](CN)C3)nc3ccccc32)nc1 [Example 81, (S)-6-((2-(3-(aminomethyl)pyrrolidin-1-yl)-1H-benzo[d]imidazol-1-yl)methyl)nicotinonitrile hydrochloride]
0.504 | N#Cc1ccc(Cn2c(N3CC[C@H](F)[C@H](N)C3)nc3cc(Cl)c(Cl)cc32)nc1 [Example 82, 6-((2-((3R,4S)-3-amino-4-fluoropiperidin-1-yl)-5,6-dichloro-1H-benzo[d]imidazol-1-yl)methyl)nicotinonitrile hydrochloride]
0.906 | N#Cc1ccc(Cn2c(N3CC[C@H](F)[C@H](N)C3)nc3cc(F)c(F)cc32)nc1 [Example 83, 6-((2-((3R,4S)-3-amino-4-fluoropiperidin-1-yl)-5,6-difluoro-1H-benzo[d]imidazol-1-yl)methyl)nicotinonitrile hydrochloride]
1.27 | N#Cc1ccc(Cn2c(N3CCC(F)(F)[C@H](N)C3)nc3cc(F)c(F)cc32)nc1 [Example 84, (R)-6-((2-(3-amino-4,4-difluoropiperidin-1-yl)-5,6-difluoro-1H-benzo[d]imidazol-1-yl)methyl)nicotinonitrile hydrochloride]
7.55 | N[C@@H]1CN(c2nc3ccccc3n2Cc2ccc(Cl)cn2)CCC1(F)F [Example 85, (R)-1-(1-((5-chloropyridin-2-yl)methyl)-1H-benzo[d]imidazol-2-yl)-4,4-difluoropiperidin-3-amine hydrochloride]
1.37 | N[C@@H]1CN(c2nc3ccccc3n2Cc2ccc(Cl)cn2)CC[C@@H]1F [Example 86, (3R,4S)-1-(1-((5-chloropyridin-2-yl)methyl)-1H-benzo[d]imidazol-2-yl)-4-fluoropiperidin-3-amine hydrochloride]

— US11332459B2 (TEIJIN PHARMA LIMITED, priority 2017, dated 2022)
